{
  "source": "patent US7169603B2",
  "about": "“α-MSH related compounds and methods of use” (MGI Pharma Biologics, Inc., priority 2000, dated 2007)",
  "key": {"Leptin −/− mice": {"system": "Leptin −/− mice", "test": "Leptin -/- mouse model of obesity", "assay_type": "in vivo", "details": "1 μg daily for three weeks, intranasally, intrarectally or subcutaneously; compared to untreated mice; FIG. 18A", "protocol": "Leptin −/− mice were used as a model of mammalian obesity to evaluate the effectiveness of an α-MSH analog and an α-MSH encoding nucleic acid to treat the condition. […] Leptin −/− obese mice were administered (either intranasally, intrarectally, or subcutaneously) with 1 μg of the α-MSH(4-13) analog daily for three weeks."}, "TNBS-treated mice": {"system": "TNBS-treated mice", "test": "TNBS-induced Inflammatory Bowel Disease (IBD) model", "assay_type": "in vivo", "details": "intranasal administration together with TNBS", "description": "Inflammatory Bowel Disease (IBD) was induced in mice by the administration of trinitrobenzenesulphonic acid (TNBS), in 40% EtOH, to the mice. […] The IBD model is described in, for example, Keates et al. (2000) Gastroenterology 119:972–82.\nThe administration of EtOH alone (no TNBS) caused no weight loss in the animals. The “untreated” mice were given only the TNBS administration. The aMSH(4-13) mice were given an administration of TNBS, together with an intranasal administration of the aMSH(4-13) analog, which reduced the severity of the TNBS-induced weight loss."}},
  "note": "Square brackets hold non-standard residues; d marks the D form.",
  "data": [
    {"substance": "Ac-CEH[dF]RWCKPV-NH2 (cysteine pairing not given here) [α-MSH(4-13) analog]", "values": [
      {"measurement": "weight gain", "setting": "Leptin −/− mice", "value": "a decrease in weight gain"},
      {"measurement": "survival of TNBS-treated animals", "setting": "TNBS-treated mice", "value": "increased the survival"},
      {"measurement": "TNBS-induced weight loss", "setting": "TNBS-treated mice; FIG. 17A", "value": "decreased the weight loss"}
    ]}
  ]
}
